# Experiments:
# Experiment in all cases: radiometric filter-binding kinase assay
# FLT1 (human) = FLT1 (human) (UniProt P17948)
# [1] = system: SGK1 (human), O00141 [S422D]
# JAK2 JH1 JH2 (human) = JAK2 JH1 JH2 (human) (UniProt O60674)
# HIPK3 (human) = HIPK3 (human) (UniProt Q9H422)
# PLK1 (human) = PLK1 (human) (UniProt P53350)
# EPHB4 (human) = EPHB4 (human) (UniProt P54760)
# MST4 (human) = MST4 (human) (UniProt Q9P289)
# NUAK1 (human) = NUAK1 (human) (UniProt O60285)
# TAOK1 (human) = TAOK1 (human) (UniProt Q7L7X3)
# MARK4 (human) = MARK4 (human) (UniProt Q96L34)
# MAPK3 (human) = MAPK3 (human) (UniProt P27361)
# BRSK2 (human) = BRSK2 (human) (UniProt Q8IWQ3)
# CLK2 (human) = CLK2 (human) (UniProt P49760)
# STK3 (human) = STK3 (human) (UniProt Q13188)
# MARK3 (human) = MARK3 (human) (UniProt P27448)
# NTRK1 (human) = NTRK1 (human) (UniProt P04629)
# SRC (human) = SRC (human) (UniProt P12931)
# ERBB4 (human) = ERBB4 (human) (UniProt Q15303)
# MAP3K1 (human) = MAP3K1 (human) (UniProt Q13233)
# RPS6KA1 KD1 KD2 (human) = RPS6KA1 KD1 KD2 (human) (UniProt Q15418)
# MAPK1 (human) = MAPK1 (human) (UniProt P28482)
# CHEK1 (human) = CHEK1 (human) (UniProt O14757)
# AURKA (human) = AURKA (human) (UniProt O14965)
# RPS6KA3 KD1 KD2 (human) = RPS6KA3 KD1 KD2 (human) (UniProt P51812)
# DAPK1 (human) = DAPK1 (human) (UniProt P53355)
# HIPK1 (human) = HIPK1 (human) (UniProt Q86Z02)
# EEF2K (human) = EEF2K (human) (UniProt O00418)
# PRKCZ (human) = PRKCZ (human) (UniProt Q05513)
# MAP3K5 (human) = MAP3K5 (human) (UniProt Q99683)
# RPS6KA5 KD1 KD2 (human) = RPS6KA5 KD1 KD2 (human) (UniProt O75582)
# CDK2 CCNA2 (human) = CDK2 CCNA2 (human) (UniProt P20248+P24941)
# PAK6 (human) = PAK6 (human) (UniProt Q9NQU5)
# PRKCA (human) = PRKCA (human) (UniProt P17252)
# GCK (human) = GCK (human) (UniProt Q12851)
# CHEK2 (human) = CHEK2 (human) (UniProt O96017)
# Sequence of PAK6 (human) (Q9NQU5 whole entry, looked up): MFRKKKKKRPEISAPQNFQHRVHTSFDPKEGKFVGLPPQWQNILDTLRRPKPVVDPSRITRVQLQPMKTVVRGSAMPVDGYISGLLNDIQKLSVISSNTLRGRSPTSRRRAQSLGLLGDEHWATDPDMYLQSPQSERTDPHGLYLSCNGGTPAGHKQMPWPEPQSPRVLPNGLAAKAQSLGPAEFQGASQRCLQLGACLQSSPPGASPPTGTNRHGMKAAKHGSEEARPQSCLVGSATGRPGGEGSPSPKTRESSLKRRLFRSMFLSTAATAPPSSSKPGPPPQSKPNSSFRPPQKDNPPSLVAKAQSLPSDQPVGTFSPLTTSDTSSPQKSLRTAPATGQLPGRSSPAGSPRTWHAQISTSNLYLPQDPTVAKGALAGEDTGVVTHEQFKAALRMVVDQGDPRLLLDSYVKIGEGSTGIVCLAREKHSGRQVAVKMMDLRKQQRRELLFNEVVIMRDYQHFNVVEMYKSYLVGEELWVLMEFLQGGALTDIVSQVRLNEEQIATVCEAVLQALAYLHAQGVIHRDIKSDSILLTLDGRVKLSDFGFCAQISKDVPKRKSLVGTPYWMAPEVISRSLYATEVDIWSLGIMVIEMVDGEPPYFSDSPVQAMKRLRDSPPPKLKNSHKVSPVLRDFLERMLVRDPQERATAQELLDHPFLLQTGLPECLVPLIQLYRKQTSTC
# Sequence of RPS6KA1 KD1 KD2 (human) (Q15418 whole entry, looked up): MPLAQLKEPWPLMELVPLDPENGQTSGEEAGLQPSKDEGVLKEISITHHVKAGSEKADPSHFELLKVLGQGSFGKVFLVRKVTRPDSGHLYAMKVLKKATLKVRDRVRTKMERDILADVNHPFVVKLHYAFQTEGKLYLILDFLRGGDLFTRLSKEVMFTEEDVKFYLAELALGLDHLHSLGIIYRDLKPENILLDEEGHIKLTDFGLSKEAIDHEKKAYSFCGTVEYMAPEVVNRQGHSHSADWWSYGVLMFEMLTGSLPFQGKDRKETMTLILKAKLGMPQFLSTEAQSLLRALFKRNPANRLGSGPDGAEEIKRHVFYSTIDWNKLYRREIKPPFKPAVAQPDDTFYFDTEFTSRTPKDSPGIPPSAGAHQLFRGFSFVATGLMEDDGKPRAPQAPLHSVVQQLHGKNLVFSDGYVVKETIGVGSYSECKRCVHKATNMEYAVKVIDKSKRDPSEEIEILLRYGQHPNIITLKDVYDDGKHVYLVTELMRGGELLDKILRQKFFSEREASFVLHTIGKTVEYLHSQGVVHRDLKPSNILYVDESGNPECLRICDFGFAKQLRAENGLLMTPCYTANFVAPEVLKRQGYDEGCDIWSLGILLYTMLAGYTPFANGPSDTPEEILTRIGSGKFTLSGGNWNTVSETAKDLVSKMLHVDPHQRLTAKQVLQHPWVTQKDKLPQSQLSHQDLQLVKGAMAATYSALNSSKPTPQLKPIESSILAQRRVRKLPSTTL
# Sequence of EEF2K (human) (O00418 whole entry, looked up): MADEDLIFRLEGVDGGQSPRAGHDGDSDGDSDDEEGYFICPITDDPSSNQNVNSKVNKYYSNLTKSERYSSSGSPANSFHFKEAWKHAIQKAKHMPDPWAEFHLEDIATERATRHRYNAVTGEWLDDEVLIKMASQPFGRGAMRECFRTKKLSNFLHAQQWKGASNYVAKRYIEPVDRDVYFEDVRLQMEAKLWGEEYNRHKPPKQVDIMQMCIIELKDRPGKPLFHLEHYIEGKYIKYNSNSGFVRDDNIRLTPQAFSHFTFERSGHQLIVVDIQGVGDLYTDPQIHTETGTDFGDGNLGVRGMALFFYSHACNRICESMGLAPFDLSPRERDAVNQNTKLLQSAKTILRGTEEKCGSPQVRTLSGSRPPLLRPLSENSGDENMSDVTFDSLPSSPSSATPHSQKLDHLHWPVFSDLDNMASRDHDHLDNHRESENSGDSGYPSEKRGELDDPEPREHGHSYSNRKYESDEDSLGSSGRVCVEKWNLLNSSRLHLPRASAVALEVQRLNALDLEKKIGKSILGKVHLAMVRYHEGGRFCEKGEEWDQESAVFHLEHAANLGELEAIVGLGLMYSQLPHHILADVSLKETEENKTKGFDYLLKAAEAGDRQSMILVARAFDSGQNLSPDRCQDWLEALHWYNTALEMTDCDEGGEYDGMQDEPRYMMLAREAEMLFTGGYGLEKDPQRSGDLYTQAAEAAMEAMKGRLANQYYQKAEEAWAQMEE
# Sequence of HIPK3 (human) (Q9H422 whole entry, looked up): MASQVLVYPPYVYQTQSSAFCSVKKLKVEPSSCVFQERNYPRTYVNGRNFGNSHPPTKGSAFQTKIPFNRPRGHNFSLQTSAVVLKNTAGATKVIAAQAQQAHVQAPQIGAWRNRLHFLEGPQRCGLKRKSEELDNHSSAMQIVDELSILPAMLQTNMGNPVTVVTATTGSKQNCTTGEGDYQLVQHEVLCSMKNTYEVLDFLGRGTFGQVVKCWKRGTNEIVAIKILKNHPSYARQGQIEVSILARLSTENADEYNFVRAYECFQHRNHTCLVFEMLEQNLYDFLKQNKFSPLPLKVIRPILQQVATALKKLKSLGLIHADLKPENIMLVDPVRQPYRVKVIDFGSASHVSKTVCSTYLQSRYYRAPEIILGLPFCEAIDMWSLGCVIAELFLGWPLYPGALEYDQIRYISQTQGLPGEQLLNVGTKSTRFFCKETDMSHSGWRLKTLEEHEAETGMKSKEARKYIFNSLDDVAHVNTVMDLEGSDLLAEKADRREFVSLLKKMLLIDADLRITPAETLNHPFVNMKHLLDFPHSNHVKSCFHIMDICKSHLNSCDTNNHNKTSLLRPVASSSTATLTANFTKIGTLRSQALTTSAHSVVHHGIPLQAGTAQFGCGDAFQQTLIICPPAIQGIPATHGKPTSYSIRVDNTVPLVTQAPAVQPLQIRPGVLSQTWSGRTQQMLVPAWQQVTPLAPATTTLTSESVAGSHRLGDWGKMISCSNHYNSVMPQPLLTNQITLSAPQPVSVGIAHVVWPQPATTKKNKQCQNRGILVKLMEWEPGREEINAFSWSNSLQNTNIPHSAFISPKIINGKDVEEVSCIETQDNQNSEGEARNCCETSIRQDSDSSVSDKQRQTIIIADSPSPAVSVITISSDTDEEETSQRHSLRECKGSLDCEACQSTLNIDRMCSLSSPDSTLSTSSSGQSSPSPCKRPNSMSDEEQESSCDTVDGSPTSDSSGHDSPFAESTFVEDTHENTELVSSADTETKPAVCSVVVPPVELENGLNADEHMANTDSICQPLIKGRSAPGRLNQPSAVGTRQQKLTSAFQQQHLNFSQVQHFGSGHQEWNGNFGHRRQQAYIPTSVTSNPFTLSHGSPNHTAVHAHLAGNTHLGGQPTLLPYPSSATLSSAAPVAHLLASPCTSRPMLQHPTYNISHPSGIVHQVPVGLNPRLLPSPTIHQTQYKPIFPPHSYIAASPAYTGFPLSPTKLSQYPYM
# Sequence of RPS6KA5 KD1 KD2 (human) (O75582 whole entry, looked up): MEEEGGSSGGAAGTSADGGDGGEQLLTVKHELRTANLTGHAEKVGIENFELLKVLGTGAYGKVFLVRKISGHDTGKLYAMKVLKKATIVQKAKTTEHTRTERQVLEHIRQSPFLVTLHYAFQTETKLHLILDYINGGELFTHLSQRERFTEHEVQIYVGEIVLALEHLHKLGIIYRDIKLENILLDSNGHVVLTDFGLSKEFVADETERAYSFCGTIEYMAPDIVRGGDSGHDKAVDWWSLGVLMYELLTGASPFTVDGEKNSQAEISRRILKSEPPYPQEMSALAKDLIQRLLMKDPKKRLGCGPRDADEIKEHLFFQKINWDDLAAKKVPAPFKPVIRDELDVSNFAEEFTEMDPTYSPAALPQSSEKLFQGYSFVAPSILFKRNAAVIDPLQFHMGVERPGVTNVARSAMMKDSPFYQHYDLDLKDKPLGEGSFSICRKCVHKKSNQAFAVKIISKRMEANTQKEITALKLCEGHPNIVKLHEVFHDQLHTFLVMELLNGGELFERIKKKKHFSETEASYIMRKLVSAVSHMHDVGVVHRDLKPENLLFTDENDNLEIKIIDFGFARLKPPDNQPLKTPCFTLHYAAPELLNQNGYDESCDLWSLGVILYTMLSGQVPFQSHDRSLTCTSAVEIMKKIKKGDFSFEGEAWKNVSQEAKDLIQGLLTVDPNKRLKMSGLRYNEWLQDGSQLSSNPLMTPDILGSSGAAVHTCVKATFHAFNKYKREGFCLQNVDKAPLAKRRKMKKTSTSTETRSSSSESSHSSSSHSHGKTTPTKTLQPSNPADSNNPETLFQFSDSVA
# Sequence of MST4 (human) (Q9P289 whole entry, looked up): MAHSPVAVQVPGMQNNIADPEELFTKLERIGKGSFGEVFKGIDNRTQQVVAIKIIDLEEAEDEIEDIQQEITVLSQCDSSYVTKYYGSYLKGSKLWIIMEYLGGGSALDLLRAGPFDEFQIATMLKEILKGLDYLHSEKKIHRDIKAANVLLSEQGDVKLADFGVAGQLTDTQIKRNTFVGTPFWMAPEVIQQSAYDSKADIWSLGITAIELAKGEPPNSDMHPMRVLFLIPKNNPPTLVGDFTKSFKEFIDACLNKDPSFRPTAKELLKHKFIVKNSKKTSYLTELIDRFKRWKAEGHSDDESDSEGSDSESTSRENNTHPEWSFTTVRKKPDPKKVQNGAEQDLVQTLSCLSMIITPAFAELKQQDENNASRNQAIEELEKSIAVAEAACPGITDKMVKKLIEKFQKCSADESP
# Sequence of CHEK1 (human) (O14757 whole entry, looked up): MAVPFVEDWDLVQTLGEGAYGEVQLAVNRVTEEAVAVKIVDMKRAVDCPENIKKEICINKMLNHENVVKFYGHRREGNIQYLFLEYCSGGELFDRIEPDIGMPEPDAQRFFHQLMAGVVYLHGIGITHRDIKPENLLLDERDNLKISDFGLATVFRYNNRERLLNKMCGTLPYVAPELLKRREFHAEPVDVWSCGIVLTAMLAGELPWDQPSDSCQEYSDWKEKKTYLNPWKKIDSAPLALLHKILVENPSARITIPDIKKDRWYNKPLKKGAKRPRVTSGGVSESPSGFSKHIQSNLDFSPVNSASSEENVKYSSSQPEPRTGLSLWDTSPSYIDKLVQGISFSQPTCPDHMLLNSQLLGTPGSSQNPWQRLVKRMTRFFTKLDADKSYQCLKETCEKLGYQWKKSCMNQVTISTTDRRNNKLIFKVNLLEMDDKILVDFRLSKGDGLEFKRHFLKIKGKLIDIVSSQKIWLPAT
structure (smiles),measurement,setting,value
CNc1nc(-c2ccc3c(N)n[nH]c3c2)cc(N2C[C@@H](C(=O)NC3CCCCC3)CC[C@H]2C)n1,residual activity,FLT1 (human); compound 0.01 µM,98%
same,residual activity,FLT1 (human); compound 0.1 µM,108%
same,residual activity,FLT1 (human); compound 1.0 µM,89%
same,residual activity,FLT1 (human); compound 10.0 µM,64%
same,residual activity,[1]; compound 0.01 µM,96%
same,residual activity,[1]; compound 0.1 µM,96%
same,residual activity,[1]; compound 1.0 µM,81%
same,residual activity,[1]; compound 10.0 µM,37%
same,residual activity,JAK2 JH1 JH2 (human); compound 1.0 µM,108%
same,residual activity,JAK2 JH1 JH2 (human); compound 10.0 µM,99%
same,residual activity,HIPK3 (human); compound 0.01 µM,111%
same,residual activity,HIPK3 (human); compound 0.1 µM,105%
same,residual activity,HIPK3 (human); compound 1.0 µM,99%
same,residual activity,HIPK3 (human); compound 10.0 µM,103%
same,residual activity,PLK1 (human); compound 0.01 µM,95%
same,residual activity,PLK1 (human); compound 0.1 µM,113%
same,residual activity,EPHB4 (human); compound 1.0 µM,119%
same,residual activity,EPHB4 (human); compound 10.0 µM,117%
same,residual activity,MST4 (human); compound 0.01 µM,112%
same,residual activity,MST4 (human); compound 0.1 µM,108%
same,residual activity,MST4 (human); compound 1.0 µM,102%
same,residual activity,MST4 (human); compound 10.0 µM,102%
same,residual activity,NUAK1 (human); compound 0.01 µM,120%
same,residual activity,NUAK1 (human); compound 0.1 µM,105%
same,residual activity,NUAK1 (human); compound 1.0 µM,47%
same,residual activity,NUAK1 (human); compound 10.0 µM,9%
same,residual activity,TAOK1 (human); compound 1.0 µM,86%
same,residual activity,TAOK1 (human); compound 10.0 µM,96%
same,residual activity,MARK4 (human); compound 0.01 µM,106%
same,residual activity,MARK4 (human); compound 0.1 µM,114%
same,residual activity,MARK4 (human); compound 1.0 µM,99%
same,residual activity,MARK4 (human); compound 10.0 µM,103%
same,residual activity,MAPK3 (human); compound 0.01 µM,93%
same,residual activity,MAPK3 (human); compound 0.1 µM,106%
same,residual activity,MAPK3 (human); compound 1.0 µM,103%
same,residual activity,MAPK3 (human); compound 10.0 µM,108%
same,residual activity,BRSK2 (human); compound 0.01 µM,114%
same,residual activity,BRSK2 (human); compound 0.1 µM,110%
same,residual activity,BRSK2 (human); compound 10.0 µM,15%
same,residual activity,CLK2 (human); compound 1.0 µM,98%
same,residual activity,CLK2 (human); compound 10.0 µM,88%
same,residual activity,STK3 (human); compound 0.01 µM,116%
same,residual activity,STK3 (human); compound 0.1 µM,128%
same,residual activity,STK3 (human); compound 1.0 µM,91%
same,residual activity,STK3 (human); compound 10.0 µM,84%
same,residual activity,MARK3 (human); compound 0.01 µM,113%
same,residual activity,MARK3 (human); compound 0.1 µM,109%
same,residual activity,MARK3 (human); compound 1.0 µM,88%
same,residual activity,MARK3 (human); compound 10.0 µM,87%
same,residual activity,NTRK1 (human); compound 1.0 µM,94%
same,residual activity,NTRK1 (human); compound 10.0 µM,84%
same,residual activity,SRC (human); compound 0.01 µM,101%
same,residual activity,SRC (human); compound 0.1 µM,105%
same,residual activity,SRC (human); compound 1.0 µM,95%
same,residual activity,ERBB4 (human); compound 0.01 µM,106%
same,residual activity,ERBB4 (human); compound 0.1 µM,107%
same,residual activity,ERBB4 (human); compound 1.0 µM,106%
same,residual activity,ERBB4 (human); compound 10.0 µM,101%
same,residual activity,MAP3K1 (human); compound 1.0 µM,87%
same,residual activity,MAP3K1 (human); compound 10.0 µM,104%
same,residual activity,RPS6KA1 KD1 KD2 (human); compound 0.01 µM,123%
same,residual activity,RPS6KA1 KD1 KD2 (human); compound 0.1 µM,113%
same,residual activity,RPS6KA1 KD1 KD2 (human); compound 1.0 µM,86%
same,residual activity,RPS6KA1 KD1 KD2 (human); compound 10.0 µM,40%
same,residual activity,MAPK1 (human); compound 0.01 µM,117%
same,residual activity,MAPK1 (human); compound 0.1 µM,111%
same,residual activity,MAPK1 (human); compound 1.0 µM,107%
same,residual activity,MAPK1 (human); compound 10.0 µM,109%
same,residual activity,CHEK1 (human); compound 0.01 µM,111%
same,residual activity,CHEK1 (human); compound 0.1 µM,106%
same,residual activity,CHEK1 (human); compound 1.0 µM,96%
same,residual activity,CHEK1 (human); compound 10.0 µM,103%
same,residual activity,AURKA (human); compound 0.01 µM,112%
same,residual activity,AURKA (human); compound 0.1 µM,115%
same,residual activity,AURKA (human); compound 1.0 µM,98%
same,residual activity,AURKA (human); compound 10.0 µM,89%
same,residual activity,RPS6KA3 KD1 KD2 (human); compound 0.1 µM,97%
same,residual activity,RPS6KA3 KD1 KD2 (human); compound 1.0 µM,79%
same,residual activity,RPS6KA3 KD1 KD2 (human); compound 10.0 µM,28%
same,residual activity,DAPK1 (human); compound 1.0 µM,35%
same,residual activity,DAPK1 (human); compound 10.0 µM,12%
same,residual activity,HIPK1 (human); compound 0.01 µM,102%
same,residual activity,HIPK1 (human); compound 0.1 µM,105%
same,residual activity,HIPK1 (human); compound 1.0 µM,94%
same,residual activity,HIPK1 (human); compound 10.0 µM,112%
same,residual activity,EEF2K (human); compound 0.01 µM,108%
same,residual activity,EEF2K (human); compound 0.1 µM,100%
same,residual activity,EEF2K (human); compound 1.0 µM,105%
same,residual activity,EEF2K (human); compound 10.0 µM,100%
same,residual activity,PRKCZ (human); compound 0.01 µM,113%
same,residual activity,PRKCZ (human); compound 0.1 µM,105%
same,residual activity,PRKCZ (human); compound 1.0 µM,74%
same,residual activity,PRKCZ (human); compound 10.0 µM,23%
same,residual activity,MAP3K5 (human); compound 1.0 µM,106%
same,residual activity,MAP3K5 (human); compound 10.0 µM,99%
same,residual activity,RPS6KA5 KD1 KD2 (human); compound 0.01 µM,102%
same,residual activity,RPS6KA5 KD1 KD2 (human); compound 0.1 µM,100%
same,residual activity,RPS6KA5 KD1 KD2 (human); compound 1.0 µM,95%
same,residual activity,RPS6KA5 KD1 KD2 (human); compound 10.0 µM,66%
same,residual activity,CDK2 CCNA2 (human); compound 0.01 µM,104%
same,residual activity,CDK2 CCNA2 (human); compound 0.1 µM,101%
same,residual activity,CDK2 CCNA2 (human); compound 1.0 µM,103%
same,residual activity,CDK2 CCNA2 (human); compound 10.0 µM,85%
same,residual activity,PAK6 (human); compound 0.01 µM,108%
same,residual activity,PAK6 (human); compound 0.1 µM,120%
same,residual activity,PAK6 (human); compound 1.0 µM,99%
same,residual activity,PAK6 (human); compound 10.0 µM,96%
same,residual activity,PRKCA (human); compound 0.01 µM,104%
same,residual activity,PRKCA (human); compound 0.1 µM,105%
same,residual activity,PRKCA (human); compound 1.0 µM,98%
same,residual activity,PRKCA (human); compound 10.0 µM,96%
same,residual activity,GCK (human); compound 0.01 µM,109%
same,residual activity,GCK (human); compound 0.1 µM,116%
same,residual activity,GCK (human); compound 1.0 µM,97%
same,residual activity,GCK (human); compound 10.0 µM,86%
same,residual activity,CHEK2 (human); compound 0.1 µM,121%
same,residual activity,CHEK2 (human); compound 1.0 µM,96%
same,residual activity,CHEK2 (human); compound 10.0 µM,51%
